Measured values as given in US9957271B2, “Substituted bicyclic aza-heterocycles and analogues as sirtuin modulators” (GlaxoSmithKline, LLC, priority 2012, dated 2018).

Assays:
SIRT1 [1] = biological target: T1, SIRT1 (Homo sapiens, UniProt Q96EB6); assay: Trp mass spectrometry assay of SIRT1 activity; format: biochemical; details: for Emax: read-out: Trp % Fold Act
T1 sequence (Q96EB6 1-747): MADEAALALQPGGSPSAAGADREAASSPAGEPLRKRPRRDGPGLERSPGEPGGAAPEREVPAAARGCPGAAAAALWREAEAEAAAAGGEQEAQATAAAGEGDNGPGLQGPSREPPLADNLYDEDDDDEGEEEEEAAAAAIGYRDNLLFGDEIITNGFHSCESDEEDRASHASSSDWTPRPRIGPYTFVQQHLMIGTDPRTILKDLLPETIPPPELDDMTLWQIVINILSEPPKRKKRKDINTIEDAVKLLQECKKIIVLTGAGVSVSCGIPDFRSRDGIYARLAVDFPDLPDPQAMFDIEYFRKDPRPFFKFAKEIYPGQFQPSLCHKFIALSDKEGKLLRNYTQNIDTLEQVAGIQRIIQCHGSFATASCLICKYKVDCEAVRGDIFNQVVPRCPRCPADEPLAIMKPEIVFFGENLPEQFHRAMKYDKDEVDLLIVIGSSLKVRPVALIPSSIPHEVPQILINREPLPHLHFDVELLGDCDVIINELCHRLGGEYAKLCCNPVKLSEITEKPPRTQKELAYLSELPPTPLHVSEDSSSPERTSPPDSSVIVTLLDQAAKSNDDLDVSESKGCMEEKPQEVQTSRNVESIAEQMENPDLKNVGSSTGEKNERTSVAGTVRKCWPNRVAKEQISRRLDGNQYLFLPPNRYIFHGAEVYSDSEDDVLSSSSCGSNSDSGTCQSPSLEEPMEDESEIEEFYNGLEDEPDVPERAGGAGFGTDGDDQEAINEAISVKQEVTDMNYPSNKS
Outline: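 His-tagged SIRT1 expressed in E. coli BL21(DE3), 10 nM, incubated 25 min at 25° C. with 0.5 μM Ac-RHKK(Ac)W-NH2 peptide and 120 μM βNAD+ in 50 mM HEPES pH 7.5, […], 1 mM DTT, 0.05% BSA; formic acid stop. OAADPR or deacetylated peptide measured by mass spectrometry; EC1.5 and percent maximum activation versus DMSO control.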

SIRT1 [2] = biological target: T1, SIRT1; assay: TAMRA based mass spectrometry assay of SIRT1 activity; format: biochemical; details: for Emax: read-out: TAMRA % Fold Act
Outline: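 Recombinant N-terminal His-tagged human SIRT1 (10 nM, E. coli) incubated 25 min at 25 °C with 0.5 μM 5TMR-labelled p53-derived acetyl-peptide and 120 μM βNAD+ in Tris-acetate pH 8 buffer with DTT and 0.05% BSA, compound at varying concentrations. Stopped with formic acid; deacetylated peptide or OAADPR measured by mass spectrometry relative to DMSO controls.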

[3] = Trp assay, concentration giving 150% activation of SIRT1
[4] = Trp assay, percent maximum fold activation
[5] = TAMRA assay, concentration giving 150% activation of SIRT1
[6] = TAMRA assay, percent maximum fold activation
[7] = Trp peptide substrate, concentration giving 150% activation of SIRT1
[8] = Trp peptide substrate, percent maximum fold activation
[9] = TAMRA peptide substrate, concentration giving 150% activation of SIRT1
[10] = TAMRA peptide substrate, percent maximum fold activation
[11] = concentration of test compound giving 150% activation of SIRT1, Trp peptide substrate
[12] = percent maximum fold activation of SIRT1, Trp peptide substrate
[13] = concentration of test compound giving 150% activation of SIRT1, TAMRA peptide substrate
[14] = percent maximum fold activation of SIRT1, TAMRA peptide substrate

Trp EC1.5 (μM) (SIRT1 [1]; [3]) | Emax (SIRT1 [1]; [4]) [%] | TAMRA EC1.5 (μM) (SIRT1 [2]; [5]) | Emax (SIRT1 [2]; [6]) [%] | Trp EC1.5 (SIRT1 [1]; [7]) | Emax (SIRT1 [1]; [8]) [%] | TAMRA EC1.5 (SIRT1 [2]; [9]) | Emax (SIRT1 [2]; [10]) [%] | SMILES | other results
B (EC1.5 1-25 μM) | < 350 | A (EC1.5<1 μM) | ≥ 350 |  |  |  |  | O=C(Nc1cnccn1)c1cnn2ccc(-c3ccccc3C(F)(F)F)nc12 [Compound 267] | 
A (EC1.5<1 μM) | ≥ 350 | A (EC1.5<1 μM) | ≥ 350 |  |  |  |  | O=C(Nc1cnc2ccc(-c3ccccc3C(F)(F)F)nn12)c1cccc(OC[C@H](O)CO)n1 [Compound 236] | 
 |  |  |  | C (EC1.5>25 μM) | < 350 | B (EC1.5 1-25 μM) | < 350 | O=C(Nc1cnn2ccc(-c3ccccc3OC(F)(F)F)nc12)c1ccncc1 [Compound 583] | 
 |  |  |  | B (EC1.5 1-25 μM) | < 350 | B (EC1.5 1-25 μM) | ≥ 350 | Cc1cccc(C(=O)Nc2cnc3ccc(N4CC[C@H](F)C4)nn23)n1 [Compound 565, (S)-N-(6-(3-fluoropyrrolidin-1-yl)imidazo[1,2-b]pyridazin-3-yl)-6-methylpicolinamide] | 
A (EC1.5<1 μM) | ≥ 350 | A (EC1.5<1 μM) | ≥ 350 |  |  |  |  | Cc1cccc(NC(=O)c2c(C)nc3ccc(-c4ccccc4OC[C@H](O)CO)nn23)n1 [Compound 816] | 
 |  |  |  | C (EC1.5>25 μM) | < 350 | B (EC1.5 1-25 μM) | < 350 | O=C(Nc1ncn2ccc(-c3ccccc3C(F)(F)F)nc12)c1ccccn1 [Compound 455, N-(2-(2-(trifluoromethyl)phenyl)imidazo[1,5-a]pyrimidin-8-yl)picolinamide] | 
A (EC1.5<1 μM) | ≥ 350 | A (EC1.5<1 μM) | ≥ 350 |  |  |  |  | Cc1cccc(NC(=O)c2c(C)nn3ccc(-c4ccccc4C(F)(F)F)nc23)n1 [Compound 628, 2-methyl-N-(6-methylpyridin-2-yl)-5-(2-(trifluoromethyl)phenyl)pyrazolo[1,5-a]pyrimidine-3-carboxamide] | 
B (EC1.5 1-25 μM) | ≥ 350 | B (EC1.5 1-25 μM) | ≥ 350 |  |  |  |  | Cc1nn2ccc(-c3ccccc3C(F)(F)F)nc2c1C(=O)Nc1ncc(F)cc1F [Compound 788] | 
B (EC1.5 1-25 μM) | < 350 | B (EC1.5 1-25 μM) | ≥ 350 |  |  |  |  | O=C(Nc1ccc(OCC(O)CO)nc1)c1cnc2ccc(-c3ccccc3C(F)(F)F)nn12 (stereo not shown) [Compound 263] | 
A (EC1.5<1 μM) | < 350 | A (EC1.5<1 μM) | ≥ 350 |  |  |  |  | O=C(Nc1cnc2ccc(-c3ccccc3Cl)nn12)c1cccc(OCC(O)CO)n1 (stereo not shown) [Compound 309] | 
 |  |  |  |  |  |  |  | O=C(Nc1ccnc(N2CCCC2)c1)c1cnc2ccc(-c3ccccc3C(F)(F)F)nn12 [Compound 25] | Trp EC1.5 (μM) (SIRT1 [1]; [11]): A (EC1.5<1 μM); Emax (SIRT1 [1]; [12]): ≥ 350%; TAMRA EC1.5 (μM) (SIRT1 [2]; [13]): A (EC1.5<1 μM); Emax (SIRT1 [2]; [14]): ≥ 350%
 |  |  |  |  |  |  |  | CN(C)CCn1cc(NC(=O)c2cnc3ccc(-c4ccccc4C(F)(F)F)nn23)cn1 [Compound 155] | Trp EC1.5 (μM) (SIRT1 [1]; [11]): C (EC1.5>25 μM); Emax (SIRT1 [1]; [12]): < 350%; TAMRA EC1.5 (μM) (SIRT1 [2]; [13]): B (EC1.5 1-25 μM); Emax (SIRT1 [2]; [14]): < 350%
 |  |  |  |  |  |  |  | O=C(Nc1nc(CN2CCOCC2)cs1)c1cnc2ccc(-c3cccc(F)c3)nn12 [Compound 29] | Trp EC1.5 (μM) (SIRT1 [1]; [11]): B (EC1.5 1-25 μM); Emax (SIRT1 [1]; [12]): < 350%; TAMRA EC1.5 (μM) (SIRT1 [2]; [13]): B (EC1.5 1-25 μM); Emax (SIRT1 [2]; [14]): < 350%
 |  |  |  | A (EC1.5<1 μM) | < 350 | A (EC1.5<1 μM) | ≥ 350 | Cc1nc2ccc(-c3ccccc3OC(F)(F)F)nn2c1C(=O)Nc1ccccn1 [Compound 496] | 
 |  |  |  | B (EC1.5 1-25 μM) | < 350 | A (EC1.5<1 μM) | ≥ 350 | O=C(Nc1ccncn1)c1cnn2ccc(-c3ccccc3OC(F)(F)F)nc12 [Compound 533, N-(pyrimidin-4-yl)-5-(2-(trifluoromethoxy)phenyl)pyrazolo[1,5-a]pyrimidine-3-carboxamide] | 
 |  |  |  |  |  |  |  | O=C(Nc1cccc(CN2CCOCC2)n1)c1cnc2ccc(-c3cccc(F)c3F)nn12 [Compound 47] | Trp EC1.5 (μM) (SIRT1 [1]; [11]): C (EC1.5>25 μM); Emax (SIRT1 [1]; [12]): < 350%; TAMRA EC1.5 (μM) (SIRT1 [2]; [13]): A (EC1.5<1 μM); Emax (SIRT1 [2]; [14]): ≥ 350%
